{"source": "patent US20140121164A1", "about": "“PREVENTION OF KIDNEY INJURY OR DISEASE” (University of Florida Research Foundation, priority 2012, published 2014)", "key": {"[1]": {"test_system": "patients undergoing cardiac surgery", "assay": "Prevention of AKI by different dosage regimes of AP214 in patients undergoing cardiac surgery (CS005 protocol)", "format": "in vivo, human", "experimental": "Each of 12 patients undergoing cardiac surgery (the AP214 group) was dosed with 600 μg/kg AP214: 200 μg/kg at skin incision, 200 μg/kg at cross clamp release, and 200 μg/kg 6-hour after cross clamp release. Each dosage was provided over a period of 10 minutes. The placebo group included 13 patients undergoing cardiac surgery without AP214 infusion.\nObjectives • trial objective was to assess the effect of AP214 on • 1) changes in serum creatinine, cystatin-C and carbamade, • 2) on eGFR and • 3) on the development of post-surgical acute kidney injury (AKI) • AKI also assessed (post-hoc analysis) by AKIN and RIFLE\nThree different definitions of AKI were tested: • 1) 3 patients in the AP214 group developed AKI, in contrast to 7 patients in the placebo group who developed AKI. AKI is defined as in the CS005 protocol: • An absolute increase in serum creatinine of more than or equal to 26.4 μmol/l (0.3 mg/dl) or • A percentage increase in serum creatinine of more than or equal to 50% (1.5-fold from baseline) from Day 0-14 and/or • Urine output less than 0.5 mL/kg per hour for more than 6 hours. • 2) AKI according to the AKIN score as presented in FIG. 3a, and • 3) AKI according to the RIFLE score as presented in FIG. 3b."}, "[2]": {"test_system": "patients undergoing cardiac surgery on cardiopulmonary bypass (CPB)", "assay": "CS007 trial: short and long term efficacy signals and safety of AP214 in patients undergoing cardiac surgery on cardiopulmonary bypass", "format": "in vivo, human", "settings": "for average serum creatinine values over time: through 168 hours post surgery; for outcomes as measured by the composite endpoint (all cause death, RRT, kidney function): 90 day post-operative period, vs placebo; for population distribution of extreme serum creatinine values: highest quartile; for kidney function as measured by estimated GFR: seven day post-operative period", "text": "The CS007 trial was designed to study both short and long term efficacy signals (FIG. 5).\nPrimary Aims • Safety: Safety and tolerability vs. placebo • Efficacy: Max post-operative change in absolute values of SCr compared to baseline within the first 7 days after surgery or until discharge from hospital, whichever comes first vs. placebo.\nSecondary Aims • Composite: • Assess the proportion of patients reaching the composite endpoint of death, need for RRT or a 25% reduction in renal function over a 90 day post-operative period vs. placebo. • AKIN: Assess post-operative incidence of AKI within 48 hours post-surgery • RIFLE: Assess post-operative incidence of AKI within first 7 days post-surgery. • SCr: Changes between surgery and postoperative day 7. • GFR: Changes at day 90 compared to baseline. • eGFR: Changes between surgery and postoperative day 7\nEach dosage was provided over a period of 10 minutes. As used throughout this disclosure and unless specified otherwise, “μg/kg” refers to μg AP214 per kg bodyweight of the patient being treated.\nMoreover, in the same double-blind study described in this Example, patients undergoing cardiac surgery on cardiopulmonary bypass (CPB) were randomized to placebo (PBO; n=26), AP214 given at either 600 μg/kg (n=25), or 800 μg/kg (n=26), divided into 3 bolus infusions at the predetermined intervals as described above. AKI was determined according to AKIN and RIFLE scores."}, "subjects": {"test_system": "subjects", "assay": "Evaluation of rate of infusion of AP214 (CS002)", "format": "in vivo, human", "experimental": "To establish a suitable rate of infusion of AP214 a set of patient trials were performed.\nAP214 isotonic solution single ascending doses (25, 50 and 100 μg/kg) for intravenous infusion administered over 10 minutes, or placebo (saline infusion).\nAP214 isotonic solution single doses (100 μg/kg over 1 minute; 100 μg/kg over 30 seconds; 200 μg/kg over 30 seconds) for intravenous infusion."}, "[3]": {"test_system": "pigs after induction of complete warm ischemia in the kidney", "settings": "200 μg/kg, 10 ml i.v. bolus during 1 minute, seven doses; cited from earlier work"}, "[4]": {"settings": "600 μg/kg bodyweight (3×200 μg/kg), i.v. over 10 min each, vs placebo"}, "[5]": {"settings": "600 μg/kg bodyweight, vs placebo"}}, "note": "“Also recorded” adds a separate entry of the source."}
{"compound": "CSCC[C@H](NC(=O)[C@H](CO)NC(=O)[C@H](Cc1ccc(O)cc1)NC(=O)[C@H](CO)NC(=O)[C@H](CCCCN)NC(=O)[C@H](CCCCN)NC(=O)[C@H](CCCCN)NC(=O)[C@H](CCCCN)NC(=O)[C@H](CCCCN)NC(=O)[C@H](CCCCN)NC(C)=O)C(=O)N[C@@H](CCC(=O)O)C(=O)N[C@@H](Cc1c[nH]cn1)C(=O)N[C@@H](Cc1ccccc1)C(=O)N[C@@H](CCCNC(=N)N)C(=O)N[C@@H](Cc1c[nH]c2ccccc12)C(=O)NCC(=O)N[C@@H](CCCCN)C(=O)N1CCC[C@H]1C(=O)N[C@H](C(N)=O)C(C)C", "note": "[AP214, Acetyl-Lysyl-L-lysyl-L-lysyl-L-lysyl-L-lysyl-L-lysyl-L-seryl-L-tyrosyl-L-seryl-L-methionyl-Lglutamyl-L-histidyl-L-phenylalanyl-L-arginyl-L-tryptophanyl-glycyl-L-lysyl-L-prolyl-L-valine amide]", "values": [{"measurement": "prevention of AKI as compared to the placebo", "setting": "[1]; 150 μg/kg bodyweight (3×50 μg/kg), same dosing scheme", "value": "showed no prevention of AKI"}, {"measurement": "patients who developed AKI (AKI as defined in the CS005 protocol)", "setting": "[1]; 600 μg/kg (3×200 μg/kg), AP214 group of 12 patients, Day 0-14", "value": 3, "unit": "patients"}, {"measurement": "development of AKI according to the RIFLE score and AKIN scores", "setting": "[1]; 600 μg/kg bodyweight (3×200 μg/kg)", "value": "demonstrated prevention in the development of AKI"}, {"measurement": "decrease in eGFR", "setting": "[1]; [4]", "value": "prevented a decrease in eGFR"}, {"measurement": "increase in serum creatinine", "setting": "[1]; [4]", "value": "prevented"}, {"measurement": "increase in carbamide", "setting": "[1]; [5]", "value": "prevented"}, {"measurement": "increase in cystatin C", "setting": "[1]; [5]", "value": "prevented an increase in cystatin C"}, {"measurement": "average serum creatinine values over time", "setting": "[2]; 600 μg/kg (3×200 μg/kg)", "value": "decreased average serum creatinine; also recorded: decreasing average serum creatinine values over time"}, {"measurement": "outcomes as measured by the composite endpoint (all cause death, RRT, kidney function)", "setting": "[2]; 600 μg/kg", "value": "reduction in outcomes with the 600 μg/kg dosage showing statistical significance; also recorded: reduction in negative outcomes"}, {"measurement": "population distribution of extreme serum creatinine values", "setting": "[2]; 600 μg/kg", "value": "reduction in serum creatinine values at the highest quartile"}, {"measurement": "kidney function as measured by estimated GFR", "setting": "[2]; 600 μg/kg", "value": "increased kidney function"}, {"measurement": "degrees of acute kidney injury compared to placebo", "setting": "[2]; 800 μg/kg", "value": "lesser degrees of acute kidney injury"}, {"measurement": "patients scored as AKI by AKIN and RIFLE criteria", "setting": "[2]; 800 μg/kg", "value": "decrease in patients scored as AKI"}, {"measurement": "average serum creatinine values over time", "setting": "[2]; 800 μg/kg (1×200, 1×400, 1×200 μg/kg)", "value": "decreased average serum creatinine; also recorded: decreasing average serum creatinine values over time"}, {"measurement": "GFR change (reduction) at Day 90 compared to baseline", "setting": "[2]; 800 μg/kg vs. placebo, Danish sites only", "value": "significantly lower GFR change (reduction)"}, {"measurement": "outcomes as measured by the composite endpoint (all cause death, RRT, kidney function)", "setting": "[2]; 800 μg/kg", "value": "reduction in negative outcomes"}, {"measurement": "incidence of AKI compared with PBO by surgery type", "setting": "[2]; 800 μg/kg, combined CABG and valve surgery, multiple valve surgery, chronic kidney disease and CABG (or valve surgery)", "value": "numerically lower incidence of AKI"}, {"measurement": "population distribution of extreme serum creatinine values", "setting": "[2]; 800 μg/kg", "value": "reduction in serum creatinine values at the highest quartile"}, {"measurement": "kidney function as measured by estimated GFR", "setting": "[2]; 800 μg/kg", "value": "increased kidney function"}, {"measurement": "safety and tolerability", "setting": "[2]; 600 and 800 μg/kg, each dosage over 10 minutes", "value": "safe and well tolerated"}, {"measurement": "adverse events relative to 100 μg/kg over 30 sec and 1 minute", "setting": "subjects; 200 μg/kg over 30 seconds", "value": "more adverse events"}, {"measurement": "subjects reporting erythema", "setting": "subjects; Group 2 (n=6), short infusion times", "value": 6, "unit": "subjects"}, {"measurement": "adverse events", "setting": "subjects; Group 2 (n=6), short infusion times: 100 μg/kg over 1 minute, 100 μg/kg over 30 seconds, 200 μg/kg over 30 seconds, i.v.", "value": "large number of adverse events"}, {"measurement": "episodes of vomiting in one subject", "setting": "subjects; Group 2, short infusion times", "value": 8, "unit": "episodes"}, {"measurement": "tolerability", "setting": "subjects; fast infusion rates", "value": "not well tolerated"}, {"measurement": "adverse effects", "setting": "subjects; slower infusion rate, 100 μg/kg over 10 minutes", "value": "did not show these adverse effects"}, {"measurement": "tolerability", "setting": "subjects; slower infusion rates (e.g., 10 minutes)", "value": "better tolerated"}, {"measurement": "renoprotective effect", "setting": "[3]", "value": "provides a renoprotective effect"}]}
